Results: article PMC8072159, “5-Bis-(2,6-difluoro-benzylidene) Cyclopentanone Acts as a Selective 11β-Hydroxysteroid Dehydrogenase one Inhibitor to Treat Diet-Induced Nonalcoholic Fatty Liver Disease in Mice” (Frontiers in Pharmacology, 2021)
“Also recorded” adds a separate entry of the source.

Experiments:
[1] = target: T1, 11β-HSD2 (Homo sapiens, UniProt P80365); test: 11β-HSD2 activity in human kidney microsomes; type: biochemical; conditions: 100 μM
T1 construct: purchased Gentest (Woburn, MA); host or cells: human kidney microsomes (tissue)
T1 sequence (P80365 1-405): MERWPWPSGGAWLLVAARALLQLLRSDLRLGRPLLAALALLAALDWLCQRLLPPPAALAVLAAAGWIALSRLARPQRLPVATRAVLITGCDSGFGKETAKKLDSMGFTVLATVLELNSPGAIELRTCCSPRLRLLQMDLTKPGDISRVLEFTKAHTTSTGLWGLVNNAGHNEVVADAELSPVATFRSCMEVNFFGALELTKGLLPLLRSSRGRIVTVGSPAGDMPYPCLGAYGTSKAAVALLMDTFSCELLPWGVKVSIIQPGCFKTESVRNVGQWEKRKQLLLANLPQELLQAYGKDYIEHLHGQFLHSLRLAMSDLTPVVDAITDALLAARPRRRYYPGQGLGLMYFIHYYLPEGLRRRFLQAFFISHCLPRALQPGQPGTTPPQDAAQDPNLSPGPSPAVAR
Method: Measurement of 11β-HSD2 Activity in Rat, Mouse, and Human Kidney Microsomes
The 11β-HSD2 assay was based on rat, mouse, and human kidney microsomes, as previously described ([Ge et al., 2005]). In brief, the 11β-HSD2 activity assay tube contained 25 nM substrate (cortisol for humans, CORT for rats and mice). Renal microsomes (10 μg) were incubated with substrate and 0.2 mM NAD^+ for 30 min. Other procedures were described above. The percentage conversion of cortisol to cortisone (humans) or CORT to 11DHC (rats and mice) was calculated by dividing the radioactive count of an 11keto-steroid product by the total count associated with both substrate and product.

[2] = target: T2, 11β-HSD1 (Rattus norvegicus, UniProt P16232); test: 11β-HSD1 activity in intact rat Leydig cells; type: cell-based; conditions: read-out: IC50 rat Leydig cell 11β-HSD1
T2 construct: from tissue; host or cells: liver microsomes of male Sprague Dawley rats, prepared in house
Method: Isolation of Rat Adult Leydig Cells
Leydig cells were isolated as previously described ([Ge et al., 2006]). Briefly, after a week of adjustment, eighteen 35-day-old Sprague Dawley rats were killed by asphyxiation with carbon dioxide (CO2). The testis was removed. The testis was perfused with collagenase solution through the testicular artery. The testis was digested with collagenase and DNase for 15 min, and the digested cells were filtered with nylon mesh, and the cells were separated under a Percoll gradient. The cells with density of 1.070–1.088 g/ml were collected and washed. The purity of the Leydig cell fraction was evaluated by histochemical staining of 3β-hydroxysteroid dehydrogenase using 0.4 mM etiocholanolone as a steroid substrate and 2 mM NAD + as a cofactor and tetranitroblue tetrazolium as the H^+ acceptor as previously described ([Payne et al., 1980]). More than 95% of Leydig cells are strongly stained. […] In brief, an aliquot of 10^5 cells/ml in a 0.5 ml test tube was mixed with 0.1 ml of 0.4% trypan blue at room temperature for 5 min and the cells were then loaded into a hemocytometer for counting, and the numbers of non-viable (staining) and viable (not stained) cells were counted. Viability was calculated as the percentage of viable cells divided by the total number of cells, and the viability of Leydig cells (intact Leydig cells) was over 99%. […]

T2 sequence (P16232 whole entry): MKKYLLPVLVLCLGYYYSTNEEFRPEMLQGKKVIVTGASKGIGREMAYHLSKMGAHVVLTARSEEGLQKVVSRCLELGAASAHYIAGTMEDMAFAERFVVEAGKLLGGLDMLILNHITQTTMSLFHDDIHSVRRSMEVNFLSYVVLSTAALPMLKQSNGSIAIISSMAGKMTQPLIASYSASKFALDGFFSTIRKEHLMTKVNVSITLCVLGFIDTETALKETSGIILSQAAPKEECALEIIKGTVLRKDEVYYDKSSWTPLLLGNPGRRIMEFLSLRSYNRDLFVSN

IC50 [2]: 170 ± 3.8 nM
SMILES: O=C1/C(=C/c2c(F)cccc2F)CC/C1=C\c1c(F)cccc1F [WZS08, (2E,5E)-2,5-bis(2,6-difluorobenzylidene) Cyclopentanone]
effect on 11β-HSD2 activity, human [1]: did not affect; also recorded: almost no effect
